From PubChem BioAssay (NCI)
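The compound was tested at five concentrations on cells cultured in 96-well plates, with a 48-hour exposure period. Abbreviation: GI50, concentration required for 50% inhibition of growth. TGI: concentration producing complete growth inhibition.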

Assays:
Test in all cases: growth of human tumour cells (NCI), 48 h
M14 melanoma = system: M14 melanoma
SW-620 colon = system: SW-620 colon
SNB-75 CNS = system: SNB-75 CNS
HCT-116 colon = system: HCT-116 colon
PC-3 prostate = system: PC-3 prostate
NCI-H522 lung = system: NCI-H522 lung
OVCAR-5 ovarian = system: OVCAR-5 ovarian
SF-295 CNS = system: SF-295 CNS
CCRF-CEM leukemia = system: CCRF-CEM leukemia
CAKI-1 renal = system: CAKI-1 renal

Structure (SMILES) | GI50 (M14 melanoma) | TGI (M14 melanoma) | GI50 (SW-620 colon) | TGI (SW-620 colon) | GI50 (SNB-75 CNS) | TGI (SNB-75 CNS) | GI50 (HCT-116 colon) | TGI (HCT-116 colon) | GI50 (PC-3 prostate) | TGI (PC-3 prostate) | GI50 (NCI-H522 lung) | TGI (NCI-H522 lung) | GI50 (OVCAR-5 ovarian) | TGI (OVCAR-5 ovarian) | GI50 (SF-295 CNS) | TGI (SF-295 CNS) | GI50 (CCRF-CEM leukemia) | TGI (CCRF-CEM leukemia) | TGI (CAKI-1 renal) | GI50 (CAKI-1 renal)
CCOC(=O)C1CCN(S(=O)(=O)/N=C2/NC(=O)NC2=C(Cl)Cl)CC1 | 1.82 µM | 3.6 µM | 2.09 µM | 4.37 µM | 2.86 µM | 14.1 µM | 0.736 µM | 2.48 µM | 0.621 µM | 2.58 µM | 2.22 µM | 4.28 µM | 3.6 µM | 14.7 µM | 3.56 µM | 14.1 µM | 1.23 µM | 3.16 µM | – | –
Cn1cc(C2(C)CC(C)(C)c3c2n(C)c2ccccc32)c2ccccc21 (centres undefined) | – | > 100 µM | – | > 100 µM | – | > 100 µM | – | – | – | – | – | > 100 µM | – | – | – | > 100 µM | – | > 100 µM | > 100 µM | –
Clc1cc(Cl)c2ns[s+]c2c1Cl | – | > 100 µM | – | > 100 µM | – | > 100 µM | – | > 100 µM | – | – | – | > 100 µM | – | > 100 µM | – | > 100 µM | – | > 100 µM | > 100 µM | –
C=C(C)[C@@H]1CC[C@]2(CO)CC[C@]3(C)[C@H](CC[C@@H]4[C@@]5(C)C=C(C#N)C(=O)C(C)(C)[C@@H]5CC[C@]43C)[C@@H]12 | 1.55 µM | 3.78 µM | 2.24 µM | 5.12 µM | 1.04 µM | 3.39 µM | – | – | 1.57 µM | 5.42 µM | 1.9 µM | 6.58 µM | 2.13 µM | 5.75 µM | 1.73 µM | 3.96 µM | 2.11 µM | 8.7 µM | 14.4 µM | 2.82 µM
COc1cc2ncnc(-n3ncc4cc(NC(=O)Nc5ccccc5)ccc43)c2cc1OC | 1.1 µM | 4.22 µM | 3.07 µM | 17.9 µM | 0.191 µM | 5.69 µM | 1.41 µM | 4.82 µM | 1.09 µM | 3.36 µM | – | – | 1.24 µM | 13.8 µM | 0.73 µM | 5.87 µM | 2.56 µM | 13.6 µM | 12.1 µM | 2.08 µM
O=C(N/N=C/c1cc(Br)ccc1O)N/N=C/c1cc(Br)ccc1O | – | – | – | > 100 µM | – | – | – | – | – | – | – | > 100 µM | – | > 100 µM | – | > 100 µM | – | > 100 µM | > 100 µM | –
CC1=CC(C)(C)N=C2SC(c3ccc(N)cc3)=NN12 | – | > 100 µM | – | > 61.2 µM | – | > 100 µM | – | > 100 µM | – | – | – | > 100 µM | – | > 100 µM | – | > 100 µM | – | > 72.4 µM | > 100 µM | –
Cc1ccc(N=C/C=C(\Nc2ccc(C)cc2)c2ccc(Cl)cc2)cc1 | 4.96 µM | 22.5 µM | 6.44 µM | 52 µM | – | – | 5.54 µM | 46.8 µM | 26.8 µM | > 100 µM | 21.9 µM | 70 µM | 24.4 µM | 94.9 µM | 5.55 µM | 21.9 µM | 1.95 µM | 33.5 µM | 40.4 µM | 8.52 µM
CCOC(=O)/C(C)=C(/O)C(=O)OCC | – | > 100 µM | – | > 100 µM | – | > 100 µM | – | > 100 µM | – | – | – | > 100 µM | – | > 100 µM | – | > 100 µM | – | > 100 µM | > 100 µM | –
CC(=O)C1Cn2c(nc3ccccc32)C[Se]1 (centres undefined) | – | 4.96 µM | – | 17.3 µM | – | 8.02 µM | – | 7.7 µM | – | – | – | 10.3 µM | – | 10.4 µM | – | 10.1 µM | – | > 100 µM | 5.54 µM | –
Nc1ccccc1/C(O)=C1/CCOC1=O | – | > 100 µM | – | > 100 µM | – | > 100 µM | – | > 100 µM | – | – | – | > 100 µM | – | > 100 µM | – | > 100 µM | – | > 100 µM | > 100 µM | –
NC(=O)c1cc(Cl)ccc1NC(=O)/C=C/c1ccccc1 | 2.25 µM | > 31.5 µM | 2.36 µM | > 100 µM | 3.16 µM | > 23.7 µM | 2.66 µM | > 100 µM | 3.2 µM | > 100 µM | 1.81 µM | 6.42 µM | – | > 58.7 µM | 2.58 µM | > 25.6 µM | 2.96 µM | > 100 µM | – | –
COc1cc(/C=C/c2ccc(OC)c(O)c2)cc(OC)c1 | – | 12.8 µM | – | 13.7 µM | – | – | – | 12.3 µM | – | – | – | 4.49 µM | – | 89.1 µM | – | 4.54 µM | – | 15.2 µM | 72.8 µM | –
COC(=O)C12CC3CC(CC(C(=O)O)(C3)C1)C2 | – | > 100 µM | – | > 100 µM | – | > 100 µM | – | > 100 µM | – | – | – | > 100 µM | – | > 100 µM | – | > 100 µM | – | > 100 µM | > 100 µM | –
[N-]=[N+]=C1C(=O)NN=C1c1ccccc1 | – | > 100 µM | – | > 100 µM | – | > 100 µM | – | > 100 µM | – | – | – | > 100 µM | – | > 100 µM | – | > 100 µM | – | > 100 µM | > 100 µM | –
c1ccc(C2N3CCCCC3[C@@H]3c4[nH]c5ccccc5c4CCN23)nc1 (some centres undefined) | – | > 100 µM | – | > 100 µM | – | > 100 µM | – | > 100 µM | – | – | – | – | – | > 100 µM | – | > 100 µM | – | > 100 µM | > 100 µM | –
CCOC(=O)N[C@@H]1C(CC(=O)OC)O[C@H]2OC(C)(C)O[C@H]21 (some centres undefined) | – | > 100 µM | – | > 100 µM | – | > 100 µM | – | – | – | – | – | – | – | > 100 µM | – | > 100 µM | – | > 100 µM | > 100 µM | –
Cc1cc(NC(=S)SCc2ccc(F)cc2)c([N+](=O)[O-])cc1C | – | > 100 µM | – | > 100 µM | – | > 100 µM | – | > 100 µM | – | > 100 µM | – | – | – | 54.7 µM | – | > 100 µM | – | – | > 100 µM | –
O=C(Nc1ccccc1-c1nc2ccccc2[nH]c1=O)c1ccccc1 | – | > 100 µM | – | 73.7 µM | – | 30.8 µM | – | 40.7 µM | – | – | – | 46.1 µM | – | > 100 µM | – | 47.4 µM | – | > 100 µM | 86.8 µM | –
CCCC1=C(CC)C(C(=O)Nc2c(C)cccc2C)=NC(S)N1 (centres undefined) | – | > 100 µM | – | > 100 µM | – | > 100 µM | – | > 100 µM | – | – | – | > 100 µM | – | > 100 µM | – | > 100 µM | – | > 100 µM | > 100 µM | –
